The results in this text go back to patent US10981926B2 (Janssen Pharmaceutica NV, priority 2016, dated 2021).

For assay [1], the target named is T1, F876L mutant Androgen Receptor (AR-F876L) (Homo sapiens (Human), UniProt P10275, F877L). As to the kind of experiment: LNCaP-AR-F876L AG reporter assay (agonist mode). The following applies: for EC50: pEC50 = −Log10(EC50 in Molar), read-out: LNCaP-AR-F876L AG pEC50 (converted); for Emax: read-out: LNCaP-AR-F876L AG MAX % Stim. It is filed as cell-based. On the technique in general: A reporter such as luciferase makes a cellular process visible.
T1 sequence (P10275 whole entry F877L): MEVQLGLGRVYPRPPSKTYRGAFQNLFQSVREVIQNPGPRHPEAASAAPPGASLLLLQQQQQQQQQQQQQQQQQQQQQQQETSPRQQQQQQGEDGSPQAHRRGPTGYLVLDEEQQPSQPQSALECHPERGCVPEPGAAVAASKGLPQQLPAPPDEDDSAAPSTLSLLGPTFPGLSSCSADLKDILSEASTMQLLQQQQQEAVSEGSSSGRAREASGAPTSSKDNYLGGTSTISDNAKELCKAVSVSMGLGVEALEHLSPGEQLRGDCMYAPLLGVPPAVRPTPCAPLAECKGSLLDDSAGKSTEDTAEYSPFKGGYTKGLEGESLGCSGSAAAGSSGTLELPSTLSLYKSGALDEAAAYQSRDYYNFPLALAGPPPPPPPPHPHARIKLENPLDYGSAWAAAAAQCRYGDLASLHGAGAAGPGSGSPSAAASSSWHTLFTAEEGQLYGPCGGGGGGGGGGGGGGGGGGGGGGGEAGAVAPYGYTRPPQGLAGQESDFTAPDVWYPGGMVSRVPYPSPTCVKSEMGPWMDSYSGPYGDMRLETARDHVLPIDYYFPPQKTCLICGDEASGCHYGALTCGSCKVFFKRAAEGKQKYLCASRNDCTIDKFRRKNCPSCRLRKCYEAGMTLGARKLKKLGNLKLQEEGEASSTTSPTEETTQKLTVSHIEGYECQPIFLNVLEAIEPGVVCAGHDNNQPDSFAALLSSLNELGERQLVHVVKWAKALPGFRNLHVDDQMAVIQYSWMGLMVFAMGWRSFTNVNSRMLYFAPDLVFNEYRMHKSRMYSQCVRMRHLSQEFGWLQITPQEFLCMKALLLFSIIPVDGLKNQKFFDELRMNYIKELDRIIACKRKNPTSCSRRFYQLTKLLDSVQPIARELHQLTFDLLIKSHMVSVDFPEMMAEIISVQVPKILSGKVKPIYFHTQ

Assay [2] deals with T2, wild-type Androgen Receptor (AR-wt) (Homo sapiens (Human), UniProt P10275). Description: LNCaP-AR-wt AG reporter assay (agonist mode). It is filed as cell-based. The following applies: for EC50: pEC50 = −Log10(EC50 in Molar), read-out: LNCaP-AR-wt AG pEC50 (converted); for Emax: read-out: LNCaP-AR-wt AG MAX % Stim.
T2 sequence (P10275 whole entry): as the sequence (P10275 whole entry F877L) above, with L877F counted along it
In another assay the test system is rGABA-gated Cl− channel. As to the kind of experiment: GABA-Gated Cl Channel Antagonist Radioligand Binding Assay. The following applies: 10 μM single point, [35S]-TBPS, cerebral cortex membrane homogenates. Also on record: species or system rat. The protocol: GABA-gated C1 Chanel assays were performed at CEREP according to the following method. Membrane homogenates of cerebral cortex (120 μg protein) were incubated for 120 min at 22° C. with 3 nM […] in the absence or presence of the test compound in a buffer containing 50 mM Na2HPO4/KH2PO4 (pH 7.4) and 500 mM NaCl. Nonspecific binding was determined in the presence of 20 μM picrotoxinin. Following incubation, the samples were filtered rapidly under vacuum through glass fiber filters (GF/B, Packard) presoaked with 0.3% PEI and rinsed several times with ice-cold 50 mM Tris-HCl using a 96-sample cell harvester (Unifilter, Packard). The filters were dried then counted for radioactivity in a scintillation counter (Topcount, Packard) using a scintillation cocktail (Microscint 0, Packard). The results are expressed as a percent inhibition of the control radio ligand specific binding. The standard reference compound is picrotoxinin, which was tested in each experiment at several concentrations to obtain a competition curve from which its IC50 was calculated. In this assay, the following representative compounds disclosed herein had recorded activities at a 10 μM single point concentration in the GABA-gated Cl— Channel Binding Assay.

Assay [3] addresses T1, F876L mutant Androgen Receptor (AR-F876L). As to the kind of experiment: LNCaP-AR-F876L ANT reporter assay (antagonist mode). It is filed as cell-based. The following applies: for IC50: pIC50 = −Log10(IC50 in Molar), read-out: LNCaP-AR-F876L ANT pIC50 (converted); for Emax: read-out: LNCaP-AR-F876L ANT MAX % Inh.
The target in assay [4] is T2, wild-type Androgen Receptor (AR-wt). Description: LNCaP-AR-wt ANT reporter assay (antagonist mode). It is filed as cell-based. As to conditions: for IC50: pIC50 = −Log10(IC50 in Molar), read-out: LNCaP-AR-wt ANT pIC50 (converted); for Emax: read-out: LNCaP-AR-wt ANT MAX % Inh.
[5] abbreviates: maximum % stimulation (agonist response) over the tested concentration range.
Where [6] appears, read: maximum % inhibition of R1881 control response over the tested concentration range.
Setting [7] is: agonist mode, maximum % stimulation over tested concentration range.
[8] abbreviates: antagonist mode, maximum % inhibition of R1881 control response over tested concentration range.

With `CN1CCC(Oc2ccc(N3C(=S)N(c4cnc(C#N)c(C(F)F)c4)C(=O)C34CCC4)cc2)CC1` [Cpd 41, 3-(difluoromethyl)-5-[8-[4-[(1-methyl-4-piperidyl)oxy]phenyl]-5-oxo-7-thioxo-6,8-diazaspiro[3,4]octan-6-yl]pyridine-2-carbonitrile], the EC50 in assay [1] (agonist mode) and in assay [2] (agonist mode) was over 15.1 µM throughout. Moreover, the Emax in assay [1] (setting [5]) was found to be 0.1%; in assay [2] (setting [5]), 0.1%; in assay [3] (setting [6]) it was 99.9%; in assay [4] (setting [6]), 99.3%. For the same molecule, in the assay on rGABA-gated Cl− channel, the “rGABA-gated Cl− channel % inh @10 μM” value is reported as 20.4%. The IC50 in assay [3] (antagonist mode) was 0.257 µM; in assay [4] (antagonist mode), 0.427 µM.

On to `Cc1cc(N2C(=O)C3(CCC3)N(c3ccc(OC4CCN(CC#N)CC4)nc3)C2=S)cnc1C#N` [Cpd 90, 5-[8-[6-[[1-(cyanomethyl)-4-piperidyl]oxy]-3-pyridyl]-5-oxo-7-thioxo-6,8-diazaspiro[3.4]octan-6-yl]-3-methyl-pyridine-2-carbonitrile], for which the EC50 in assay [1] (agonist mode) and in assay [2] (agonist mode) was over 15.1 µM in each case. Besides, the Emax in assay [1] (setting [5]) turned out to be 0.9%; in assay [2] (setting [5]) it was 0.6%; in assay [3] (setting [6]), 99.3%; in assay [4] (setting [6]), 99.7%. For the same molecule, the “rGABA-gated Cl− channel % inh @10 μM” value in the assay with rGABA-gated Cl− channel is 20.8%. Moreover, the IC50 in assay [3] (antagonist mode) is 0.0676 µM; in assay [4] (antagonist mode) it was 0.0891 µM.

As for `Cn1cc(N2C(=S)N(c3cnc(C#N)c(C(F)(F)F)c3)C(=O)C23CCC3)ccc1=O` [Cpd 133, 5-(5-(1-methyl-6-oxo-1,6-dihydropyridin-3-yl)-8-oxo-6-thioxo-5,7-diazaspiro[3.4]octan-7-yl)-3-(trifluoromethyl)picolinonitrile], the EC50 in assay [1] (agonist mode) and in assay [2] (agonist mode) was over 15.1 µM each time. Moreover, the Emax came to 0.6% in assay [1] (setting [5]), 0.7% in assay [2] (setting [5]), 99% in assay [3] (setting [6]) and 98.3% in assay [4] (setting [6]). Besides, the “rGABA-gated Cl− channel % inh @10 μM” value with rGABA-gated Cl− channel was −8.5%. Further, the IC50 is 0.977 µM in assay [3] (antagonist mode) and 1.58 µM in assay [4] (antagonist mode).

With `N#Cc1ncc(N2C(=O)C3(CCC3)N(c3ccc(OC4CCCO4)cc3)C2=S)cc1C(F)(F)F` (stereo not shown) [Cpd 111, 5-[5-oxo-8-(4-tetrahydrofuran-2-yloxyphenyl)-7-thioxo-6,8-diazaspiro[3.4]octan-6-yl]-3-(trifluoromethyl)pyridine-2-carbonitrile], the EC50 in assay [1] (agonist mode) and in assay [2] (agonist mode) was over 15.1 µM in each case. In addition, the Emax in assay [1] (setting [5]) came out at 0.4%; in assay [2] (setting [5]) it was 0.8%; in assay [3] (setting [6]), 101%; in assay [4] (setting [6]) it was 101%. Besides, the “rGABA-gated Cl− channel % inh @10 μM” value in the assay on rGABA-gated Cl− channel was 2.8%. The IC50 was 0.117 µM in assay [3] (antagonist mode) and 0.132 µM in assay [4] (antagonist mode).

As to `Cc1cc(N2C(=O)C3(CCC3)N(c3ccc(OC4CCN(C5CC5)CC4)cc3)C2=S)cnc1C#N` [Cpd 35, 5-[8-[4-[(1-cyclopropyl-4-piperidyl)oxy]phenyl]-5-oxo-7-thioxo-6,8-diazaspiro[3.4]octan-6-yl]-3-methyl-pyridine-2-carbonitrile], the EC50 in assay [1] (agonist mode) and in assay [2] (agonist mode) was over 15.1 µM throughout. For the same molecule, the Emax in assay [1] (setting [5]) came to 0.3%; in assay [2] (setting [5]), 0.2%; in assay [3] (setting [6]), 99.5%; in assay [4] (setting [6]) it was 100%. In addition, the “rGABA-gated Cl− channel % inh @10 μM” value with rGABA-gated Cl− channel is listed as 49.9%. For the same molecule, the IC50 in assay [3] (antagonist mode) was 0.372 µM; in assay [4] (antagonist mode), 0.912 µM.

For the molecule `N#Cc1ncc(N2C(=O)C3(CCC3)N(c3ccc(C4=CCCC(CO)O4)cc3)C2=S)cc1C(F)(F)F` (stereo not shown) [Cpd 103, 5-(5-(4-(2-(hydroxymethyl)-3,4-dihydro-2H-pyran-6-yl)phenyl)-8-oxo-6-thioxo-5,7-diazaspiro[3.4]octan-7-yl)-3-(trifluoromethyl)picolinonitrile], the “rGABA-gated Cl− channel % inh @10 μM” value with rGABA-gated Cl− channel came out at 82.7%.

Regarding `CN1CC2CCC(C1)C2Oc1ccc(N2C(=S)N(c3cnc(C#N)c(C(F)(F)F)c3)C(=O)C23CCC3)cn1` (stereo not shown) [Cpd 147, 5-[8-[6-[(3-methyl-3-azabicyclo[3.2.1]octan-8-yl)oxy]-3-pyridyl]-5-oxo-7-thioxo-6,8-diazaspiro[3.4]octan-6-yl]-3-(trifluoromethyl)pyridine-2-carbonitrile], the EC50 in assay [1] (agonist mode) and in assay [2] (agonist mode) was over 15.1 µM in each case. The Emax in assay [1] (setting [5]) is -0.1%; in assay [2] (setting [5]), -0.1%; in assay [3] (setting [6]), 101%; in assay [4] (setting [6]) it was 102%. Further, the IC50 was 0.209 µM in assay [3] (antagonist mode) and 0.224 µM in assay [4] (antagonist mode).

Consider `C=CCN1CCC(Oc2ccc(N3C(=S)N(c4cnc(C#N)c(Cl)c4)C(=O)C34CCC4)cn2)CC1` [Cpd 89, 5-[8-[6-[(1-allyl-4-piperidyl)oxy]-3-pyridyl]-5-oxo-7-thioxo-6,8-diazaspiro[3.4]octan-6-yl]-3-chloro-pyridine-2-carbonitrile], for which the EC50 in assay [1] (agonist mode) and in assay [2] (agonist mode) was over 15.1 µM in each case. Also, the Emax in assay [1] (setting [5]) worked out at 3.3%; in assay [2] (setting [5]), 0.2%; in assay [3] (setting [6]), 98.4%; in assay [4] (setting [6]), 101%. The results for the IC50 in assay [3] (antagonist mode) and in assay [4] (antagonist mode) were 0.055 µM and 0.0676 µM, respectively.

For `COCc1ccc(-c2ccc(N3C(=S)N(c4cnc(C#N)c(C)c4)C(=O)C34CCC4)cc2)o1` [Cpd 6, 5-(8-{4-[5-(methoxymethyl)(2-furyl)]phenyl}-5-oxo-7-thioxo-6,8-diazaspiro[3.4]oct-6-yl)-3-methylpyridine-2-carbonitrile], the EC50 in assay [1] (agonist mode) and in assay [2] (agonist mode) was over 15.1 µM in each case. In addition, the Emax in assay [1] (setting [5]) turned out to be 0.9%; in assay [2] (setting [5]), 0.3%; in assay [3] (setting [6]) it was 98.1%; in assay [4] (setting [6]), 99.7%. Moreover, the IC50 in assay [3] (antagonist mode) was 0.191 µM; in assay [4] (antagonist mode) it was 0.295 µM.

On to `CN1CCC(Oc2ccc(N3C(=S)N(c4cnc(C#N)c(C(F)(F)F)c4)C(=O)C34CCC4)cn2)CC12CCC2` (racemic) [Cpd 194, (R,S)-5-[8-[6-[(9-methyl-9-azaspiro[3.5]nonan-6-yl)oxy]-3-pyridyl]-5-oxo-7-thioxo-6,8-diazaspiro[3.4]octan-6-yl]-3-(trifluoromethyl)pyridine-2-carbonitrile], for which the Emax in assay [1] (setting [7]) was 0.4%; in assay [2] (setting [7]) it was -0.3%; in assay [3] (setting [8]), 103%; in assay [4] (setting [8]) it was 103%. The EC50 in assay [1] (agonist mode) and in assay [2] (agonist mode) was over 15.1 µM each time. For the same molecule, the results for the IC50 in assay [3] (antagonist mode) and in assay [4] (antagonist mode) were 0.186 µM and 0.155 µM, respectively.

In the case of `CN1CCC(C)(Oc2ccc(N3C(=S)N(c4cnc(C#N)c(C(F)(F)F)c4)C(=O)C34CCC4)cc2)CC1` [Cpd 143, 5-[8-[4-[(1,4-dimethyl-4-piperidyl)oxy]phenyl]-5-oxo-7-thioxo-6,8-diazaspiro[3.4]octan-6-yl]-3-(trifluoromethyl)pyridine-2-carbonitrile], the EC50 in assay [1] (agonist mode) and in assay [2] (agonist mode) was over 15.1 µM throughout. For the same molecule, the Emax in assay [1] (setting [5]) is 0.4%; in assay [2] (setting [5]), -0.2%; in assay [3] (setting [6]) it was 101%; in assay [4] (setting [6]), 103%. The IC50 was 0.355 µM in assay [3] (antagonist mode) and 1.35 µM in assay [4] (antagonist mode).

In the case of `CN1CCC(c2nc3cc(N4C(=S)N(c5cnc(C#N)c(C(F)(F)F)c5)C(=O)C45CCC5)ccc3[nH]2)CC1` [Cpd 256, 5-[8-[2-(1-methyl-4-piperidyl)-1H-benzimidazol-5-yl]-5-oxo-7-thioxo-6,8-diazaspiro[3.4]octan-6-yl]-3-(trifluoromethyl)pyridine-2-carbonitrile], the Emax in assay [1] (setting [7]) stood at 0.6%; in assay [2] (setting [7]) it was 0.4%; in assay [3] (setting [8]), 96.8%; in assay [4] (setting [8]), 95.9%. The EC50 in assay [1] (agonist mode) and in assay [2] (agonist mode) was over 15.1 µM each time. The IC50 is 1.35 µM in assay [3] (antagonist mode) and 4.79 µM in assay [4] (antagonist mode).
